Data published in publication PMC7228129, “Evaluation of Developmental Toxicity, Developmental Neurotoxicity, and Tissue Dose in Zebrafish Exposed to GenX and Other PFAS” (Environmental Health Perspectives, 2020).
Several values for one entry are separate records, joined by “and”; a condition that tells them apart may be missing. Equal values may be shown once. Entries after “also recorded” stand apart in the source; their conditions may differ. Read-outs that look alike come from different tables or passages of the source.

Experiment: Tissue analysis (internal tissue dose of parent PFAS, bioconcentration factor)
Assay type: in vivo, Danio rerio
Conditions: for Parent compound in fish tissue at 6 dpf: Study 1, daily exposure 0–5 dpf; for BCFdry: 6-d zebrafish assay; for concentration at 6 dpf: zebrafish (Danio rerio), whole larvae (pools of 10, homogenised), other: waterborne exposure in the well medium, 6 dpf larvae, dry weight 44 μg per larva, read-out: Measured tissue dose; for Dil Corrected Reported Conc. (fMole/larvae), measured tissue concentration: zebrafish larvae, replicate samples per experiment/plate; for Bioaccumulation ranking: among chemicals assessed, from BCF values
Experimental: Zebrafish were exposed to 25.1, 44.8, or 80.0μM ADONA, PFOA, PFESA1, or PFHxA, 14.0, 25.1, or 44.8μM PFHxS, or 1.0, 1.8, or 3.1μM PFOS, or 0.4% DMSO. The highest concentration evaluated was the no observed effect concentration (NOEC) determined in Study 1. In Study 2, zebrafish were exposed to 25.1, 44.8, or 80.0μM GenX Free Acid or 0.4% DMSO. According to the previously described microtiter plate inclusion criterion, 15/15 plates were included in the study. Larvae were anesthetized by rapid cooling in chilled 10% HBSS. Groups of 10 anesthetized larvae were pooled to comprise one biological replicate ( n=4 ) in 500μL of 10% HBSS, flash frozen in liquid nitrogen, and stored at −80°C . In the case of ADONA, n=5 .
Tissue samples were prepared by protein precipitation. Flash frozen samples, consisting of pools of ten 6-dpf zebrafish larvae, were homogenized using ∼100mg of 1.0-mm diameter zirconia/silica beads and a Fast-Prep-24™ homogenizer (MP Biomedicals) in 100μL 0.1M formic acid fortified with the surrogate (i.e., PFNA). Protein was precipitated from the homogenate with 400μL of acetonitrile containing internal standards and separated by centrifugation at 14,000 rpm for 15 min at 4°C. Fifty microliters of the extract was diluted with 200μL aqueous 0.4 mM ammonium formate in the LC vial for analysis. Standards and samples were analyzed with Vanquish UPLC and Orbitrap Fusion mass spectrometer (Thermo Electron) operated in negative ESI mode. ESI source conditions were optimized for the [M-H]^− ion of PFAS as follows: spray voltage −3.5 kV , sheath gas 25 au (arbitrary units), aux gas 6 au, sweep gas 0 au, ion transfer tube temperature 300°C, and vaporizer temperature […]. High-resolution accurate mass (HRAM) MS1 scans were collected with the following parameters: detector type orbitrap, orbitrap resolution 30,000 full width at half maximum (FWHM), normal mass range, Use quadrapole isolation=true , scan range 70–700m/z , radio frequency (RF) lens 60%, automatic gain control (AGC) target 4.00×10^5 , max injection time of 50 ms , 1 microscan, data type set to profile, negative polarity, and source fragmentation disabled. Data-dependent orbitrap MSMS (ddMS2-OT) scans were collected for the [M-H]^− ion [ M-H-CO2 for GenX]^– using a target mass list for the eight PFAS and PFNA surrogate for identity confirmation. The apex detection was set to an expected peak width of 2 s at FWHM and desired apex peak window of 30%. The dynamic exclusion parameters were set to exclude after a one-time, 60-s exclusion duration, low and high mass tolerances of 10 ppm , and exclude isotope was set to true. The intensity threshold for collecting an MSMS scan was set to 2.5E+04 . Fragmentation was done by high-energy collisional dissociation (HCD). The ddMS2-OT scans were collected with the following parameters: orbitrap isolation mode, isolation window of 1.6m/z , isolation offset off, stepped HCD collision energy of 30%±10% , scan range of auto mass-to-charge ratio normal, orbitrap resolution of 30,000 FWHM, first mass 75m/z , max injection time of […], AGC target 5.00×10^4 , inject ions from available parallelizable time set to true, max injection time of 54 ms, 1 microscan, and data type set to centroid. UPLC separation was achieved using ACQUITY UPLC BEH C18 Column, 130Å , 1.7μM , 2.1mm×50mm (Waters Corp P/N 186,002,350) at 50°C with gradient elution at a flow rate of 300μL/min using 0.4 mM ammonium formate in acetonitrile and water with a 10-μL injection. Data collection, integration, calibration, and quantitation were performed using Xcalibur software (version 4.1; Thermo Electron). Concentration for each PFAS analyte was determined by internal standard technique using isotopically labeled internal standards and matrix-matched calibration standards. Quantitative analysis was performed using high-resolution MS1-extracted ion chromatograms. […]

[1] = nominal 25.1 μM daily 0–5 dpf, 0.4% DMSO
[2] = nominal 44.8 μM daily 0–5 dpf, 0.4% DMSO
[3] = nominal 80.0 μM daily 0–5 dpf, 0.4% DMSO

Compound | Parent compound in fish tissue at 6 dpf (0.4% DMSO) | BCFdry (nominal 25.1 μM, 0.4% DMSO) | BCFdry (nominal 44.8 μM, 0.4% DMSO) | BCFdry (nominal 80.0 μM, 0.4% DMSO) | concentration at 6 dpf [1] | concentration at 6 dpf [2] | concentration at 6 dpf [3] | Dil Corrected Reported Conc. (fMole/larvae), measured tissue concentration (exposure Concentration 25.1 µM) | Dil Corrected Reported Conc. (fMole/larvae), measured tissue concentration (exposure Concentration 44.8 µM) | Dil Corrected Reported Conc. (fMole/larvae), measured tissue concentration (exposure Concentration 80 µM) | Bioaccumulation ranking | further results
O=C(O)C(F)(F)C(F)(F)C(F)(F)C(F)(F)C(F)(F)C(F)(F)C(F)(F)F [PFOA, Perfluoro-n-octanoic acid] | detectable levels | 11.68 L/kg | 6.52 L/kg | 5.17 L/kg | 116000 ± 25200 ng/g | 124000 ± 29900 ng/g | 171000 ± 41100 ng/g | 16735.5 fMole/larvae and 10378.2 fMole/larvae and 12074.8 fMole/larvae and 10012 fMole/larvae | 10919.7 fMole/larvae and 9223.5 fMole/larvae and 16062.6 fMole/larvae and 16554.8 fMole/larvae | 21852.9 fMole/larvae and 22967.7 fMole/larvae and 14850.1 fMole/larvae and 12804.3 fMole/larvae |  | 
O=C(O)C(F)(F)C(F)(F)C(F)(F)C(F)(F)C(F)(F)F [PFHxA, Perfluorohexanoic acid] |  | 0.46 L/kg | 0.18 L/kg | 0.24 L/kg | 4970 ± 4400 ng/g | 3280 ± 560 ng/g | 8770 ± 4310 ng/g | 643.192 fMole/larvae and 1721.28 fMole/larvae and 198.739 fMole/larvae and 224.57 fMole/larvae | 344.178 fMole/larvae and 504.145 fMole/larvae and 437.515 fMole/larvae and 553.638 fMole/larvae | 1323.26 fMole/larvae and 776.14 fMole/larvae and 638.759 fMole/larvae and 2174.95 fMole/larvae | least bioaccumulative | 
O=C(O)C(F)(F)C(F)OC(F)(F)C(F)(F)C(F)(F)OC(F)(F)F (stereo not drawn) [ADONA, 4,8-Dioxa-3H-perfluorononanoate] | detectable levels | 0.95 L/kg | 0.94 L/kg | 0.56 L/kg | 9490 ± 3100 ng/g | 16000 ± 6290 ng/g | 14900 ± 3110 ng/g | 687.994 fMole/larvae and 814.543 fMole/larvae and 1674.31 fMole/larvae and 986.423 fMole/larvae and 1056.18 fMole/larvae | 1721.39 fMole/larvae and 1579.99 fMole/larvae and 1307.54 fMole/larvae and 1119.74 fMole/larvae and 3082.15 fMole/larvae | 1324.81 fMole/larvae and 2040.26 fMole/larvae and 1665.47 fMole/larvae and 1967.75 fMole/larvae and 1175.25 fMole/larvae | least bioaccumulative | 
O=S(=O)(O)C(F)(F)C(F)(F)C(F)(F)C(F)(F)C(F)(F)C(F)(F)C(F)(F)C(F)(F)F [PFOS, Perfluorooctanesulfonic acid] |  |  |  |  |  |  |  |  |  |  | most bioaccumulative | BCFdry (nominal 1.0 μM, 0.4% DMSO): 1,374.89 L/kg; BCFdry (nominal 1.8 μM, 0.4% DMSO): 1,348.46 L/kg; BCFdry (nominal 3.1 μM, 0.4% DMSO): 684.03 L/kg; concentration at 6 dpf (nominal 1.0 μM daily 0–5 dpf, 0.4% DMSO): 220000 ± 109000 ng/g; concentration at 6 dpf (nominal 1.8 μM daily 0–5 dpf, 0.4% DMSO): 422000 ± 183000 ng/g; concentration at 6 dpf (nominal 3.1 μM daily 0–5 dpf, 0.4% DMSO): 678000 ± 53500 ng/g; Dil Corrected Reported Conc. (fMole/larvae), measured tissue concentration (exposure Concentration 0.986 µM): 29113.1 fMole/larvae and 7862.61 fMole/larvae and 11812.2 fMole/larvae and 28665.6 fMole/larvae; Dil Corrected Reported Conc. (fMole/larvae), measured tissue concentration (exposure Concentration 1.76 µM): 24142 fMole/larvae and 18963.9 fMole/larvae and 47666.3 fMole/larvae and 57759 fMole/larvae; Dil Corrected Reported Conc. (fMole/larvae), measured tissue concentration (exposure Concentration 3.144 µM): 57262.1 fMole/larvae and 67321.8 fMole/larvae and 54771.6 fMole/larvae and 59188.7 fMole/larvae
O=S(=O)(O)C(F)(F)C(F)(F)OC(F)(C(F)(F)F)C(F)(F)OC(F)=C(F)F (stereo not drawn) [PFESA1, Perfluoro-3,6-dioxa-4-methyl-7-octene-1-sulfonic acid] | detectable levels | 3.09 L/kg | 2.62 L/kg | 1.44 L/kg | 23700 ± 17500 ng/g | 37000 ± 17400 ng/g | 43200 ± 4840 ng/g | 4.79E+03 fMole/larvae and 1603 fMole/larvae and 2911 fMole/larvae and 78 fMole/larvae | 2778 fMole/larvae and 2495 fMole/larvae | 3514 fMole/larvae and 4409 fMole/larvae | least bioaccumulative | 
O=C(O)C(F)(OC(F)(F)C(F)(F)C(F)(F)F)C(F)(F)F (stereo not drawn) [GenX Free Acid, Perfluoro-2-propoxypropanoic acid] |  |  |  |  |  |  |  |  |  |  |  | Parent compound in larval zebrafish tissue (GenX Free Acid diluted in DI water (Study 2)): detectable levels; also recorded: detectable in zebrafish tissue; Parent compound in zebrafish tissue at 6 dpf (GenX Free Acid diluted in DMSO (Study 1)): undetectable; BCFdry (nominal 25.1 μM in DI water (Study 2)): 0.45 L/kg; BCFdry (nominal 44.8 μM in DI water (Study 2)): 0.29 L/kg; BCFdry (nominal 80.0 μM in DI water (Study 2)): 0.49 L/kg; concentration at 6 dpf (nominal 25.1 μM in DI water (Study 2) daily 0–5 dpf): 2480 ± 660 ng/g; concentration at 6 dpf (nominal 44.8 μM in DI water (Study 2) daily 0–5 dpf): 2020 ± 270 ng/g; concentration at 6 dpf (nominal 80.0 μM in DI water (Study 2) daily 0–5 dpf): 5110 ± 1490 ng/g
O=S(=O)(O)C(F)(F)C(F)(F)C(F)(F)C(F)(F)C(F)(F)C(F)(F)F [PFHxS, Perfluorohexanesulfonic acid] |  | 8.01 L/kg | 9.30 L/kg |  | 129000 ± 31500 ng/g | 261000 ± 57200 ng/g |  | 1.35E+04 fMole/larvae and 1.76E+04 fMole/larvae and 8.93E+03 fMole/larvae and 1.16E+04 fMole/larvae | 2.76E+04 fMole/larvae and 3.50E+04 fMole/larvae and 2.15E+04 fMole/larvae and 2.07E+04 fMole/larvae |  |  | BCFdry (nominal 14.0 μM, 0.4% DMSO): 11.82 L/kg; concentration at 6 dpf (nominal 14.0 μM daily 0–5 dpf, 0.4% DMSO): 107000 ± 50100 ng/g; Dil Corrected Reported Conc. (fMole/larvae), measured tissue concentration (exposure Concentration 14 µM): 8.83E+03 fMole/larvae and 1.94E+04 fMole/larvae and 6.95E+03 fMole/larvae and 7.88E+03 fMole/larvae
